Measured values reported in US11318113B2, “Compounds for the treatment of diseases linked to mitochondrial reactive oxygen species (ROS) production” (OP2 DRUGS, priority 2015, dated 2022).

Columns and labels:
[1] = system: site IQ of complex I of the mitochondrial respiratory chain; assay: Mitochondrial ROS/H2O2 production (Amplex Red/HRP), no complex inhibitor, ATR only; type: biochemical, rat; details: glutamate+malate+succinate, ATR (state 4); AOL 5 to 80 μM
Description: Rates of ROS/H2O2 production from heart mitochondria were assessed through the oxidation of the colorless, non-fluorescent indicator Amplex Red in the presence of exogenous horseradish peroxidase (HRP, EC 1.11.1.7, Sigma). H2O2 reacts with Amplex Red in a 1:1 stoichiometry, yielding the fluorescent compound resorufin (excitation: 560 nm; emission: 585 nm) which is stable once formed. Fluorescence was measured continuously with a spectro-fluorometer equipped with temperature control and stirring (SAFAS Xenius, Monaco). Isolated mitochondria (0.1 mg/mL) were incubated in the same experimental buffer than previously, supplemented with 15 μM Amplex Red and 10 μg/mL HRP. Glutamate (5 mM)/malate (2.5 mM) together with succinate (5 mM) were used as complex I and complex II substrates, respectively. Experiments were conducted under non-phosphorylating conditions in the presence of 15 μM atractyloside, i.e. under state IV conditions where mitochondrial membrane […]. […]
FIG. 3 illustrates the effect of the presence of increasing concentrations of AOL (from 5 to 80 μM) on ROS/H2O2 production measured under the different conditions defined in FIG. 2. […]

[2] = system: TH-positive neurons in the substantia nigra of MPTP-treated mice; assay: Sub-chronic MPTP mouse model of Parkinson's disease, TH-positive neuron count; type: in vivo; details: 5 mg/kg ip, 11 consecutive days; p<0.01
Description: In this study, the potential neuroprotective effects of AOL were assessed by counting the number of tyrosine hydroxylase (TH)-positive neurons in the substantia nigra (SN) in the sub-chronic 1-methyl-4-phenyl-1,2,3,6-tetrahydropyridine (MPTP) mouse model of Parkinson's disease. Mice were treated with AOL (5 mg/kg; ip) or vehicle for 11 consecutive days. MPTP (20 mg/kg; ip) or saline was administered on treatment days 4-8. All mice were killed on day 12 following final administration of treatment.
For vehicle conditions, the test item was dissolved in 0.5% DMSO/0.95% Tween 20 in saline while AOL was administered intraperitoneally (i.p.) at the dose of 5 mg/kg. […]
Unbiased stereological analysis was used to estimate the number of TH-immunopositive (TH+) neurons (Mercator, Explora Nova, La Rochelle, France). The boundaries of the SN were determined by examining the size and shape of the different TH+ neuronal groups. The volume was calculated by using the formula: V=ΣS td; where ΣS is the sum of surface areas, t is the average section thickness and d is the number of slices between two consecutive sections measured. […] The following formula was used to estimate the number of TH+ neurons: N=V(SN) (ΣQ−/ΣV(dis)); where N is the estimation of cell number, V is the volume of the SN, ΣQ− is the number of cells counted in the dissectors, and ΣV(dis) is the total volume of all the dissectors. […]

COc1ccc(-c2cc(=S)ss2)cc1 [AOL, 5-(4-methoxyphenyl)-3H-1,2-dithiole-3-thione]
decrease of ROS/H2O2 production measured in the absence of inhibitor [1]: approximately 80%
increase in number of TH+ cells in the SN compared to vehicle in MPTP-treated mice [2]: 44%
